“Also recorded” adds a separate entry of the source.
Columns and labels:
[1] = test system: guinea-pig peritoneal macrophages; assay: Prostacyclin (6-oxo-PGF1α) release in peritoneal macrophages; assay type: cell-based
Procedure: (§1) Cells were incubated with stimuli including the chemotactic tripeptide, formyl methiony leucyl Phenylalanine (fMLP, 100 nM), Zymosan (400 μg/ml) or phorbol myristate acetate (PMA, 100 nM) for 30 min in the presence or absence of 2-methoxyestradiol (10 μM) added 15 min before the stimuli. […] All individual incubations were carried out in duplicate and experiments were carried out in macrophages from 5 guinea-pigs.

[2] = test system: pig endometrial cell cultures; conditions: Zhang & Davis, 1992; cited from earlier work
[3] = test system: human cultured airway smooth muscle cells; assay: Protein synthesis: [3H]-leucine incorporation; assay type: cell-based; conditions: for activity at 0.3 µM / activity at 1 µM / activity at 3 µM / activity at 10 µM: mean ± SEM
[4] = test system: endothelial cells and fibroblasts; conditions: actively proliferating or non-quiescent; cited from earlier work
oestrogen receptors = conditions: Merriam et al, 1980; cited from earlier work
[5] = test system: guinea-pig peritoneal macrophages; assay: Superoxide anion release in peritoneal macrophages; assay type: cell-based; conditions: 10 μM
Procedure: as §1, with “Guinea-pig peritoneal macrophages were harvested and cultured according to out previous studies (Stewart & Phillips, 1989). Cells” for “Cells”

[6] = test system: human cultured airway smooth muscle cells; assay: DNA synthesis: [3H]-thymidine incorporation; assay type: cell-based
Procedure: Human bronchial airway smooth muscle was obtained from macroscopically normal lung resection specimens from lung transplant donors or recipients provided by the Alfred Hospital (Melbourne). Cultures were prepared as previously described in detail (Tomlinson et al., 1994). Briefly, the tissue was partially digested in Dulbecco's Modified Eagle's Medium (DMEM), [supplemented with 2 mM L-glutamine, 100 μg/ml streptomycin, 100 U/ml penicillin-G, 2 μg/ml amphotericin B, and 0.25% w/v bovine serum albumin (BSA)] containing 3 mg/ml collagenase for 30 minutes at 37° C. and approximately 0.5 g smooth muscle was further digested by a 2 hour incubation in 0.5 mg/ml elastase, followed by an 18 hour incubation in collagenase (3 mg/ml) at 37° C. Cell suspensions ere centrifuged (10 min, 100×g, 25° C.), washed three times in supplemented DMEM, resuspended in 25 ml DMEM containing 10% (v/v) heat-inactivated foetal calf serum (FCS), seeded into 25 cm^2 Falcon culture flasks and incubated (37° C., 5% CO2) for 7 to 10 days until monolayer confluence was reached. Cells were then harvested weekly by 10 min exposure to 0.5% trypsin, 1 mM EDTA and passaged at a 1:3 split ratio into 75 cm^2 Falcon culture flaskes. Cells at passage numbers 3 to 15 were used for experiments.
Cells were subcultured into 24-well plates at a 1:3 ratio and allowed to grow to monolayer confluency over a 72-96 hour period in an atmosphere of 5% CO2 in air at 37° C. The serum-containing medium was replaced with serum-free DMEM for a 24 hour period to produce growth arrest. In some experiments, the cells were pretreated with 2-methoxyestradiol 30 min before the addition of mitogen. The stimulant (mitogen) was added to the appropriate wells together with a supplement containing insulin, transferrin, and selenium (Monomed A, 1% v/v). Monomed A was added to provide progression factors which are essential for the mitogenic activity of growth factors such as thrombin, epidermal growth factor (EGF) and basic fibroblast growth factor (bFGF) (Stewart et al., 1995a). Mitogens and inhibitors were left in contact with cells from the time of addition until the end of the experiment, unless indicated otherwise. Cells were incubated for 24 hours (37° C., 5% CO2) before being pulsed with [^3 H]-thymidine (1 μCi/ml for four hours) to measure incorporation of radiolabel into newly synthesized DNA, according to out previous study (Stewart et al., 1995). Incorporation of radioactivity was determined by filtration at the end of the pulse-labelling period. The medium containing the radioactivity was aspirated and the cells were lysed by addition of 200 μl of 0.1M NaOH. The DNA was immobilised by filtration in a binding harvester (Packard Filtermate 196) on glass fibre filters (Packard, standard), which were then washed with 3×3 ml volumes of distilled water and a single 1 ml volume of 100% ethanol. The dried filters were counted in a Packard Topcount liquid scintillation counter. Protein synthesis rates were determined in experiments of analogous design to those described above, but [^3 H]-leucine replaced [^3 H]-thymidine in the pulsing incubation of 4 hours. Furthermore, in experiments to determine the effects of mitogens and 2-methoxyestradiol on the rate of protein synthesis, incubations with mitogen were carried out for a period of 48 hours. The longer duration of these experiments was required to allow sufficient time for cell division to occur.
Each treatment in an individual experiment was carried out in quadruplicate for DNA and protein synthesis experiments. Each experiment was performed in at least three different cultures obtained from three different individuals. For cell counting, single incubations were carried out in three cultures. Results are presented as grouped data from multiple cultures and are expressed as mean ±S. E. of n cultures. The degree of increment was calculated by dividing the response of treated wells by that of the control wells on the same 24-well plate.

[7] = test system: airway smooth muscle cells; conditions: 10 μM
tubulin = conditions: literature; cited from earlier work
smooth muscle = conditions: Goyache et al., 1995; cited from earlier work
[8] = Homo sapiens, 5HT (10 nM)-stimulated cells
[9] = Homo sapiens, unstimulated cells
[10] = 3 μM, thrombin, additional time points

Structure (SMILES): COc1cc2c(cc1O)CC[C@@H]1[C@@H]2CC[C@]2(C)[C@@H](O)CC[C@@H]12 [2-methoxyestradiol, 1,3,5[10]-estratriene-2,3,17-triol 2-methylether]
- inhibition at 10 µM ([1]; Cavia porcellus, Peritoneal macrophage, 0.5 h, PMA (100 nM), read-out: reduction of 6-oxo-PGF1α / prostacyclin response, PMA): 50%
- 6-oxo-PGF1α / prostacyclin generation, fMLP ([1]; fMLP (100 nM), 10 μM): completely blocked
- synthesis of PGF2α [2]: inhibits the synthesis of PGF2α
- [3H]-leucine incorporation at 10 μM ([3]; 10 μM, thrombin or bFGF): no significant inhibitory effect
- activity at 0.3 µM [3, 8]: 91 ± 5%
- activity at 1 µM [3, 8]: 62 ± 2%
- activity at 3 µM [3, 8]: 56 ± 2%
- activity at 10 µM [3, 8]: 51 ± 6%
- activity at 0.3 µM [3, 9]: 135 ± 3%
- activity at 1 µM [3, 9]: 84 ± 4%
- activity at 3 µM [3, 9]: 77 ± 3%
- activity at 10 µM [3, 9]: 113 ± 9%
- inhibition at 3 µM ([3]; Homo sapiens, at 3 μM, thrombin, FCS 1% or bFGF, read-out: maximum percentage reduction of [3H]-leucine incorporation): ~30%
- minimal effective concentration ([3]; Homo sapiens, thrombin (0.3 U/ml), FCS (1% v/v) or bFGF (300 pM), 48 h, read-out: threshold concentration for inhibition of [3H]-leucine incorporation): 1 µM
- [3H]-leucine incorporation, compound alone, 10 μM ([3]; unstimulated, 10 μM): no effect
- [3H]-leucine incorporation, compound alone, 1 and 3 μM ([3]; unstimulated, 1 and 3 μM): small inhibitory effects
- proliferation of endothelial cells and fibroblasts [4]: inhibits proliferation
- affinity for oestrogen receptors (oestrogen receptors): not to have significant affinity
- superoxide anion response of macrophages, PMA ([5]; PMA (100 nM)): unaffected
- superoxide anion response of macrophages, fMLP ([5]; fMLP (100 nM)): reduced
- superoxide anion response of macrophages, zymosan ([5]; zymosan (400 μg/ml)): reduced; also recorded: completely blocked
- DNA synthesis, addition at 18 hours or later after thrombin ([6]; 3 μM, thrombin 0.3 U/ml): no effect
- time of addition after thrombin giving maximum inhibition ([6]; 3 μM, thrombin 0.3 U/ml, first time-course): 2 h
- thrombin-stimulated DNA synthesis, addition up to 4 h after thrombin ([6]; 3 μM, thrombin 0.3 U/ml, time-course): inhibited
- persistence of significant inhibition after thrombin addition [6, 10]: up to 6 hours
- time of addition giving the highest level of activity [6, 10]: either simultaneously or 1 hour after thrombin
- relative potency among analogues examined ([6]; DNA synthesis): most potent of the analogues examined
- DNA synthesis in the presence of EGF or 10% FCS ([6]; EGF 3 nM or 10% FCS, relative to thrombin, bFGF, lower FCS): inhibited to a significantly lesser extent
- FCS (1%)-stimulated DNA synthesis, 10 μM ([6]; FCS 1%, 10 μM): inhibition was observed at 10 μM; also recorded: equivalent to 2-methoxyestradiol (10 μM)
- FCS (1%)-stimulated DNA synthesis, lower concentrations ([6]; FCS 1%, lower concentrations): enhanced
- inhibition with FCS (10%) ([6]; FCS 10%): significantly less inhibited
- inhibition at 3 µM ([6]; Homo sapiens, 3 μM, thrombin 0.3 U/ml, read-out: inhibition of DNA synthesis, addition between 4 and 14 hours after thrombin): ~20%
- activity at 10 µM ([6]; Homo sapiens, thrombin 0.3 U/ml, 10 μM, read-out: response to thrombin ([3H]-thymidine), remaining): ~10%
- concentration-response of enhancement of thrombin-stimulated DNA synthesis ([6]; thrombin): bell-shaped concentration-response curve
- enhancement of thrombin-stimulated DNA synthesis, 10 μM ([6]; thrombin 0.3 U/ml, 10 μM): level of enhancement declined at 10 μM
- thrombin-stimulated incorporation of [3H]-thymidine ([6]; thrombin 0.3 U/ml, 0.3-10 μM, 30 min pretreatment): concentration-dependentreduction
- thrombin-stimulated DNA synthesis (analogues) ([6]; thrombin 0.3 U/ml, up to 3 μM): enhanced thrombin-stimulated DNA synthesis
- cell detachment from the culture plates [7]: no cell detachment
- protein synthesis rates (as evidence against cytotoxicity) [7]: not altered
- microtubule disruption / tubulin polymerisation (tubulin): microtubule disruption via binding at the colchicine site on tubulin
- calcium influx into smooth muscle (smooth muscle): decrease calcium influx

From patent US6200966A, “Compositions for inhibiting airway wall inflammation” (Amrad Operations Pty. Ltd., priority 1996, dated 2001)
